Here are results for 34 molecules from patent US12459899B2, “Isoquinolinone derivatives, method for preparing the same, and pharmaceutical composition for preventing or treating poly(ADP-ribose) polymerase-1-related diseases, comprising the same as active ingredient” (DIGMBIO. INC., priority 2019, dated 2025).

Counter-ions that a name gives are not always drawn. Some results are limits rather than exact numbers.

The first assay deals with PARP-1 (poly[ADP-ribose] polymerase 1) enzyme (Homo sapiens (Human), UniProt P09874). Briefly: PARP-1 (poly[ADP-ribose] polymerase 1) enzyme inhibitory ability, Trevigen assay kit. In kind it is biochemical. The conditions noted are these: 1 nM compound; read-out: PAR P-1 Inhibitory ability at 1 nM. In outline: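 Human PARP-1 activity was measured with a Trevigen assay kit in histone-coated 96-well plates rehydrated with 50 μL of 1×PARP buffer for 30 minutes. Enzyme (0.5 unit/well) and compound were preincubated 10 minutes at room temperature, then 25 μL of 1×PARP cocktail with biotinylated NAD and activated DNA was added for 1 hour.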
Chain of PARP-1 (poly[ADP-ribose] polymerase 1) enzyme (P09874 whole entry): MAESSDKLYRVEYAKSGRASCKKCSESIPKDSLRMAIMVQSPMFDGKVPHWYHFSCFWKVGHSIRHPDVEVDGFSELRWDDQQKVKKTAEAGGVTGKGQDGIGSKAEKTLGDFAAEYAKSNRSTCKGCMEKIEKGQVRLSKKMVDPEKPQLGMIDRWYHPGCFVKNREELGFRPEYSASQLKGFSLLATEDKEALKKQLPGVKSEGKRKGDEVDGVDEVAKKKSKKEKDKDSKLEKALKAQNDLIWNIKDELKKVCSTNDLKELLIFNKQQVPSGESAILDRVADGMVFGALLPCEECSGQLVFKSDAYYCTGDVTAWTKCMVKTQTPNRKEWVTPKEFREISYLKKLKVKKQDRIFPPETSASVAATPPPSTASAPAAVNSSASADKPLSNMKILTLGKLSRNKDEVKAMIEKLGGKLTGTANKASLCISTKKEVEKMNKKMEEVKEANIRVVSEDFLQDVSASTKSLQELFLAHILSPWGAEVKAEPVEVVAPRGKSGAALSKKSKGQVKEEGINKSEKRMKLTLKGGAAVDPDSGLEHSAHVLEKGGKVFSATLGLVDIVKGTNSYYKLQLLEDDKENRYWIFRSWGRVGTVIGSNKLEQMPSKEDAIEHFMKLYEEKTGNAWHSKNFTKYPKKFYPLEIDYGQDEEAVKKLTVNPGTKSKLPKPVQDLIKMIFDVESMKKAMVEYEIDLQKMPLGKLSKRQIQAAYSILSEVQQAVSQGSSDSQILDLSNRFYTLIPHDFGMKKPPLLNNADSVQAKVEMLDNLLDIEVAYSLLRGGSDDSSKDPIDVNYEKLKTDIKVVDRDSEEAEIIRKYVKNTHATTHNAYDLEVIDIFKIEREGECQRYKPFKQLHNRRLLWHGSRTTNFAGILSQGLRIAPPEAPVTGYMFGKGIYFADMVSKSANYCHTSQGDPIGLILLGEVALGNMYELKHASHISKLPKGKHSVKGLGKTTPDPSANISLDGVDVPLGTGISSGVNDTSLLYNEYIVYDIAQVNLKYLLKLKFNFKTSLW
Turning to `N#Cc1cc(N2CCN(C(=O)CCc3cc4ccc(F)cc4c(=O)[nH]3)CC2)ccc1F` [Example 109, 2-fluoro-5-(4-(3-(7-fluoro-1-oxo-1,2-dihydroisoquinolin-3-yl)propanoyl)piperazin-1-yl)benzonitrile], the inhibition at 0.001 µM is below 50%.
As to `N#Cc1ccc(N2CCN(C(=O)CCc3cc4cccc(F)c4c(=O)[nH]3)CC2)cc1` [Example 68, 4-(4-(3-(8-fluoro-1-oxo-1,2-dihydroisoquinolin-3-yl)propanoyl)piperazin-1-yl)benzonitrile], the inhibition at 0.001 µM is below 50%.
For `N#Cc1ccc(N2CC3CCC(C2)N3CCCc2cc3cccc(F)c3c(=O)[nH]2)cc1` [Example 7, 4-(8-(3-(8-fluoro-1-oxo-1,2-dihydroisoquinolin-3-yl)propyl)-3,8-diazabicyclo[3.2.1]octan-3-yl)benzonitrile], the inhibition at 0.001 µM is below 50%.
With `O=C(CCc1cc2cccc(F)c2c(=O)[nH]1)N1CCN(c2ccccc2F)CC1` [Example 75, 8-fluoro-3-(3-(4-(2-fluorophenyl)piperazin-1-yl)-3-oxopropyl)isoquinolin-1(2H)-one], the inhibition at 0.001 µM is below 50%.
Consider `Cc1ccc(F)c2c(=O)[nH]c(CCC(=O)N3CCN(c4ccc(C#N)c(F)c4)CC3)cc12` [Example 126, 2-fluoro-4-(4-(3-(8-fluoro-5-methyl-1-oxo-1,2-dihydroisoquinolin-3-yl)propanoyl)piperazin-1-yl)benzonitrile], for which the inhibition at 0.001 µM is below 50%.
For `Cc1ccc(F)c2c(=O)[nH]c(CCCN3CCN(c4ccc(C(F)(F)F)cc4)CC3)cc12` [Example 27, 8-fluoro-5-methyl-3-(3-(4-(4-(trifluoromethyl)phenyl)piperazin-1-yl)propyl)isoquinolin-1(2H)-one], the inhibition at 0.001 µM was below 50%.
Consider `O=c1[nH]c(CCCN2CCN(c3ccc(C(F)(F)F)cc3)CC2)cc2ccc(F)cc12` [Example 9, 7-fluoro-3-(3-(4-(4-(trifluoromethyl)phenyl)piperazin-1-yl)propyl)isoquinolin-1(2H)-one], for which the inhibition at 0.001 µM was below 50%.
The same measure, in the same setting: with `Cc1ccc(F)c2c(=O)[nH]c(CCCN3CCN(c4ccccn4)CC3)cc12` [Example 24, 8-fluoro-5-methyl-3-(3-(4-(pyridin-2-yl)piperazin-1-yl)propyl)isoquinolin-1(2H)-one] the figure was below 50%; with `O=C(CCc1cc2ccc(F)cc2c(=O)[nH]1)N1CCN(C(=O)C2CC2)CC1` [Example 184, 3-(3-(4-(cyclopropanecarbonyl)piperazin-1-yl)-3-oxopropyl)-7-fluoroisoquinolin-1(2H)-one], below 50%; with `N#Cc1ccc(N2CC3CCC(C2)N3CCCc2cc3ccc(F)cc3c(=O)[nH]2)nc1` [Example 204, 6-(8-(3-(7-fluoro-1-oxo-1,2-dihydroisoquinolin-3-yl)propyl)-3,8-diazabicyclo[3.2.1]octan-3-yl)nicotinonitrile], 50 to 80%.
Turning to `Cc1cc(F)cc2c(=O)[nH]c(CCCN3CCN(c4ccc(F)cc4)CC3)cc12` [Example 40, 7-fluoro-3-(3-(4-(4-fluorophenyl)piperazin-1-yl)propyl)-5-methylisoquinolin-1(2H)-one], the inhibition at 0.001 µM was in the range of 50 to 80%.
As to `N#Cc1ccc(NC2CCN(CCCc3cc4cccc(F)c4c(=O)[nH]3)CC2)cn1` [Example 248, 5-((1-(3-(8-fluoro-1-oxo-1,2-dihydroisoquinolin-3-yl)propyl)piperidin-4-yl)amino)picolinonitrile], the inhibition at 0.001 µM is below 50%.
On to `N#Cc1cc(F)cc(C2=CCN(C(=O)CCc3cc4cccc(F)c4c(=O)[nH]3)CC2)c1` [Example 84, 3-fluoro-5-(1-(3-(8-fluoro-1-oxo-1,2-dihydroisoquinolin-3-yl)propanoyl)-1,2,3,6-tetrahydropyridin-4-yl)benzonitrile], for which the inhibition at 0.001 µM is below 50%.
Regarding `Cc1ccc(F)c2c(=O)[nH]c(CCC(=O)N3CC=C(c4ccc(F)cc4)CC3)cc12` [Example 125, 8-fluoro-3-(3-(4-(4-fluorophenyl)-3,6-dihydropyridin-1(2H)-yl)-3-oxopropyl)-5-methylisoquinolin-1(2H)-one], the inhibition at 0.001 µM was below 50%.
On to `O=C(CCc1cc2ccc(F)cc2c(=O)[nH]1)N1CC=C(c2ccc(F)nc2)CC1` [Example 102], for which the inhibition at 0.001 µM was below 50%.
For `Cc1cc(F)cc2c(=O)[nH]c(CCCN3CCN(c4ccc(C#N)cc4F)CC3)cc12` [Example 37, 3-fluoro-4-(4-(3-(7-fluoro-5-methyl-1-oxo-1,2-dihydroisoquinolin-3-yl)propyl)piperazin-1-yl)benzonitrile], the inhibition at 0.001 µM is below 50%.
In the case of `Cc1ccc(F)c2c(=O)[nH]c(CCC(=O)N3CCC(Nc4ccc(Cl)cc4)CC3)cc12` [Example 264, 3-(3-(4-((4-chlorophenyl)amino)piperidin-1-yl)-3-oxopropyl)-8-fluoro-5-methylisoquinolin-1(2H)-one], the inhibition at 0.001 µM is below 50%.
For `Cc1ccc(F)c2c(=O)[nH]c(CCC(=O)N3CCC(NC(=O)C4CC4)CC3)cc12` [Example 276, N-(1-(3-(8-fluoro-5-methyl-1-oxo-1,2-dihydroisoquinolin-3-yl)propanoyl)piperidin-4-yl)cyclopropanecarboxamide], the inhibition at 0.001 µM is below 50%.
Regarding `Cc1ccc(F)c2c(=O)[nH]c(CCCN3CC[C@H](c4ccc(F)cc4)C3)cc12` [Example 31, (R)-8-fluoro-3-(3-(3-(4-fluorophenyl)pyrrolidin-1-yl)propyl)-5-methylisoquinolin-1(2H)-one], the inhibition at 0.001 µM was below 50%.
In the case of `O=C(CCc1cc2ccc(F)cc2c(=O)[nH]1)N1CCN(c2ccc(C(F)(F)F)cc2)CC1` [Example 118, 7-fluoro-3-(3-oxo-3-(4-(4-(trifluoromethyl)phenyl)piperazin-1-yl)propyl)isoquinolin-1(2H)-one], the inhibition at 0.001 µM was below 50%.
On the same count and under the same terms, next, `O=c1[nH]c(CCCN2CC=C(c3ccc(F)cc3)CC2)cc2cccc(F)c12` [Example 42, 8-fluoro-3-(3-(4-(4-fluorophenyl)-3,6-dihydropyridin-1(2H)-yl)propyl)isoquinolin-1(2H)-one]: 50 to 80%; `COC(=O)c1ccc(NC2CCN(CCCc3cc4ncccc4c(=O)[nH]3)CC2)cc1` [Example 252, methyl 4-((1-(3-(5-oxo-5,6-dihydro-1,6-naphthyridin-7-yl)propyl)piperidin-4-yl)amino)benzoate]: below 50%.
For `CN(c1ccc(C#N)cc1)C1CCN(C(=O)CCc2cc3cccc(F)c3c(=O)[nH]2)CC1` [Example 257, 4-((1-(3-(8-fluoro-1-oxo-1,2-dihydroisoquinolin-3-yl)propanoyl)piperidin-4-yl)(methyl)amino)benzonitrile], the inhibition at 0.001 µM is below 50%.
Take `N#Cc1ccc(C2=CCN(CCCc3cc4ccc(F)cc4c(=O)[nH]3)CC2)cc1F` [Example 52, 2-fluoro-4-(1-(3-(7-fluoro-1-oxo-1,2-dihydroisoquinolin-3-yl)propyl)-1,2,3,6-tetrahydropyridin-4-yl)benzonitrile]: the inhibition at 0.001 µM was below 50%.
On to `Cc1ccc(F)c2c(=O)[nH]c(CCC(=O)N3CCN(C(=O)[C@H](C)N)CC3)cc12` [Example 194, 3-(3-(4-(L-alanyl)piperazin-1-yl)-3-oxopropyl)-8-fluoro-5-methylisoquinolin-1(2H)-one hydrochloride], for which the inhibition at 0.001 µM was below 50%.
Regarding `Cc1cc(F)cc2c(=O)[nH]c(CCC(=O)N3CCN(c4ccc(C#N)cn4)CC3)cc12` [Example 152, 6-(4-(3-(7-fluoro-5-methyl-1-oxo-1,2-dihydroisoquinolin-3-yl)propanoyl)piperazin-1-yl)nicotinonitrile], the inhibition at 0.001 µM is below 50%.
As for `N#Cc1ccc(OC2CC3CCC(C2)N3CCCc2cc3cccc(F)c3c(=O)[nH]2)cc1` (stereo not drawn) [Example 273, 4-((8-(3-(8-fluoro-1-oxo-1,2-dihydroisoquinolin-3-yl)propyl)-8-azabicyclo[3.2.1]octan-3-yl)oxy)benzonitrile], the inhibition at 0.001 µM is below 50%.
For `Cc1ccc(F)c2c(=O)[nH]c(CCCN3C4CCC3CN(c3ccc(C#N)cc3)C4)cc12` [Example 197], the inhibition at 0.001 µM was below 50%.
Turning to `O=C(CCc1cc2ccc(F)cc2c(=O)[nH]1)N1CCN(c2cccc(F)c2)CC1` [Example 120, 7-fluoro-3-(3-(4-(3-fluorophenyl)piperazin-1-yl)-3-oxopropyl)isoquinolin-1(2H)-one], the inhibition at 0.001 µM was below 50%.
On to `Cc1ccc(F)c2c(=O)[nH]c(CCCN3CCN(c4ccc(Cl)cc4)CC3)cc12` [Example 33, 3-(3-(4-(4-chlorophenyl)piperazin-1-yl)propyl)-8-fluoro-5-methylisoquinolin-1(2H)-one], for which the inhibition at 0.001 µM is below 50%.
Still for that read-out and setting: with `N#Cc1ccc(N2CCN(CCCc3cc4ncccc4c(=O)[nH]3)CC2)nc1` [Example 222, 6-(4-(3-(5-oxo-5,6-dihydro-1,6-naphthyridin-7-yl)propyl)piperazin-1-yl)nicotinonitrile] the figure was below 50%; with `O=C(CCc1cc2cccc(F)c2c(=O)[nH]1)N1CC=C(c2ccnc(F)c2)CC1` [Example 92, 8-fluoro-3-(3-(2′-fluoro-3,6-dihydro-[4,4′-bipyridine]-1(2H)-yl)-3-oxopropyl)isoquinolin-1(2H)-one], below 50%; with `Cc1ccc(F)c2c(=O)[nH]c(CCCN3C4CCC3CN(c3ccc(F)nc3)C4)cc12` [Example 202, 8-fluoro-3-(3-(3-(6-fluoropyridin-3-yl)-3,8-diazabicyclo[3.2.1]octan-8-yl)propyl)-5-methylisoquinolin-1(2H)-one], below 50%.
Turning to `Cc1cc(F)cc2c(=O)[nH]c(CCC(=O)N3CCN(c4ccc(Cl)cc4)CC3)cc12` [Example 155, 3-(3-(4-(4-chlorophenyl)piperazin-1-yl)-3-oxopropyl)-7-fluoro-5-methylisoquinolin-1(2H)-one], the inhibition at 0.001 µM is below 50%.

The assay is the same for the next values; noted with them: PARP-1 enzyme activity.
A word on the IC50: it is the concentration that inhibits the measured activity by half. Lower therefore signals greater potency. In the case of `N#Cc1ccc(N2CCN(C(=O)CCc3cc4cccc(F)c4c(=O)[nH]3)CC2)cc1` [Example 68, 4-(4-(3-(8-fluoro-1-oxo-1,2-dihydroisoquinolin-3-yl)propanoyl)piperazin-1-yl)benzonitrile], the IC50 stood at 1.9 nM.
For `Cc1cc(F)cc2c(=O)[nH]c(CCC(=O)N3CCN(c4ccc(C#N)cn4)CC3)cc12` [Example 152, 6-(4-(3-(7-fluoro-5-methyl-1-oxo-1,2-dihydroisoquinolin-3-yl)propanoyl)piperazin-1-yl)nicotinonitrile], the half-maximal inhibitory concentration (IC50) turned out to be 0.85 nM. This IC50 is about 2.2-fold lower than that of the molecule before.
